From US11793824B2, “Administration of nicotinamide mononucleotide in the treatment of disease” (Washington University, priority 2013, dated 2023) come the findings set out here.

What all share (assay type): in vivo, mouse
Data set [1] is described as follows: Age-associated increases in blood lipid levels. The protocol:
(§1) A 12 month-long NMN administration study using wild-type mice under a regular chow-fed condition was conducted. NMN was administered through drinking water, and two doses of NMN, 100 and 300 mg/kg body weight/day, were tested. […] To assess beneficial and possible adverse effects of NMN, a variety of physiological parameters were periodically monitored, including body weight, body temperature, food and water intake, fed and fasted blood glucose levels, fed and fasted plasma lipid panels, and glucose and insulin tolerance, in NMN-administered and control mice. Blood chemistry, blood cell counts, urine strip test, and other physiological tests including physical activity test were also checked.
Blood levels of cholesterol, triglycerides, and free fatty acids are shown over 12 months in the control and the 100 and 300 mg/kg NMN-administered cohorts in FIG. 7. The results were analyzed with two-way RANOVA and one-way RANOVA. All values are presented as mean±SEM (n=25 for each group).
Without being limited by theory, since NMN has an effect of suppressing age-associated body weight increase, it was hypothesized that NMN's effect on blood lipid levels could be due to the reduction in body weight. To address this possibility, lipid levels were compared among individual mice whose average body weights were matched through control and experimental cohorts. Body weight-matched blood levels of cholesterol, triglycerides, and free fatty acids are shown over 12 months in the control and the 100 and 300 mg/kg NMN-administered cohorts in FIG. 8. The results were analyzed with two-way RANOVA and one-way RANOVA. All values are presented as mean±SEM (n=10-15 for each group). […] All values are presented as mean±SEM (n=10-15 for each group). These findings indicate that NMN has the effect of suppressing the age-associated increase in blood FFA levels, independent of the reduction in body weight. Without being limited by theory, the effect of NMN on blood cholesterol levels may be secondary to the effect of suppressing age-associated body weight increase.

The nature of data set [2]: Fundus biomicroscopy of aged mice. To be noted: 18 months of age. On the procedure:
as §1
In the long-term NMN administration study (See Methods; Administration of NMN through Drinking Water and Determination of NMN Stability and Toxicity), retinal function was evaluated by fundus biomicroscopy and electroretinography (ERG). FIG. 11 illustrates fundus biomicroscopy images from control and NMN-administered mice. For each group, five mice were examined, and two representative images are shown.

In the next data set the test system is NAMPT cone-CKO mice. The data set is described as follows: ERG rescue in NAMPT cone-CKO mice. To be noted: NMN i.p. From the text:
The inventors examined the effect of selectively disrupting NAD biosynthesis within PR. The inventors utilized the cre-lox strategy to generate mice that had NAMPT conditionally deleted from either rods (NAMPT rod-CKO) or cones (NAMPT cone-CKO). The NAMPT fl/fl mice as well as the rhodopsin-cre and cone opsin-cre mice have been previously characterized. Both rod and cone cko mice are generated with normal Mendelian frequencies and are born normal with no observable systemic abnormalities (data not shown). All structural and functional analyses performed in CKO mice are analyzed in comparison to littermate controls. Rods constitute a majority of the PR neurons (97% of all photoreceptors). […] Neurosensory retinal degeneration was associated with secondary atrophy and pallor of the optic nerve (FIG. 29C).
These quantifiable structural and functional changes were associated with decrease in visual acuity in cone-CKO mice (FIG. 30E). Histopathologic analyses confirmed outer nuclear layer degeneration with subsequent multilayer retinal degeneration and cell death in cone-CKO mice similar to the changes seen above for rod-CKO mice. […] NMN treatment had no effect on littermate controls (FIG. 33A-B). […] Furthermore, providing NMN treatment is able to rescue PR neurons and vision.

The mark [3] stands for this setting: 100 and 300 mg/kg groups vs control.

Turning to `NC(=O)c1ccc[n+]([C@@H]2O[C@H](COP(=O)([O-])O)[C@@H](O)[C@H]2O)c1` [NMN, nicotinamide mononucleotide], the “increase of FFAs over time after body weight match” value in data set [1] (100 mg/kg group) is given as “showed significant increases over time”; in data set [1] (300 mg/kg group) it was “did not show any statistically significant increases over time”. For the same compound, the “increase of blood FFAs over time” value was “statistically significant increases” in data set [1] (100 mg/kg group, first 6 months) and “did not show any statistically significant increase over time” in data set [1] (300 mg/kg group). In addition, the “age-associated increases in blood levels of FFAs” value in data set [1] (300 mg/kg, particularly at the 6-month time point) is on record as “suppressed age-associated increases in blood levels of FFAs”. In addition, in data set [1] (setting [3]), the “FFA levels after matching body weight” value is reported as “still lower”. The “blood cholesterol levels after matching body weight” value in data set [1] (setting [3]) was “very similar through control and experimental groups”. Further, the “age-associated increases in blood cholesterol and free fatty acids” value in data set [1] (100 and 300 mg/kg groups, 12 months) was “tended to be suppressed”. Also, the “mice with dramatic reductions in intraretinal whitish deposits” value was “two” in data set [2] (100 mg/kg) and “four” in data set [2] (300 mg/kg). For the same compound, the “effect on littermate controls” value in the data set on NAMPT cone-CKO mice was “no effect”. Also, the ERG function entry with NAMPT cone-CKO mice (vs PBS treated cone-CKO mice) was “improve ERG function”.
